Experimental data from patent publication US7825093B2 (priority 2006, dated 2010).
Entries after “also recorded” stand apart in the source; their conditions may differ. Bridge positions count the residues as written; N and C are the ends. Ends that are not written are not given here. Peptide text beside a SMILES is read from it.

B1: MGGHHHHHHGGGPSVFLFPPKPKDTLMISRTPEVTCVVVDVSHEDPEVKFNWYVDGVEVHNAKTKPREEQYNSTYRVVSVLTVLHQDWLNGKEYKCKVSNKALPAPIEKTISGGGGSGGGGSGVIINVKCKISRQCLEPCKKAGMRFGKCMNGKCHCTPK (protein)
chain: MGGHHHHHHGGGPSVFLFPPKPKDTLMISRTPEVTCVVVDVSHEDPEVKFNWYVDGVEVHNAKTKPREEQYNSTYRVVSVLTVLHQDWLNGKEYKCKVSNKALPAPIEKTISGGGGSGGGGSGVIINVKCKISRQCLEPCKKAGMRFGKCMNGKCHCTPK
B2: FcLoop-L2-OsK1-L2: OsK1 inserted into the human IgG1 Fc loop with 2-Gly linkers (protein)
chain: MDKTHTCPPCPAPELLGGPSVFLFPPKPKDTLMISRTPEVTCVVVDVSHEDPEVKFNWYVDGVEVHNAKTKPREEQYNSTYRVVSVLTVLHQDWLNGKEYKCKVSNKALPAPIEKTISKAKGQPREPQVYTLPPSRDELGGGVIINVKCKISRQCLEPCKKAGMRFGKCMNGKCHCTPKGGTKNQVSLTCLVKGFYPSDIAVEWESNGQPENNYKTTPPVLDSDGSFFLYSKLTVDKSRWQQGNVFSCSVMHEALHNHYTQKSLSLSPGK
modifications: Definition of Artificial Sequence: Synthetic protein
B3: FcLoop-L2-ShK-L2: ShK inserted into the human IgG1 Fc loop with 2-Gly linkers (protein)
chain: MDKTHTCPPCPAPELLGGPSVFLFPPKPKDTLMISRTPEVTCVVVDVSHEDPEVKFNWYVDGVEVHNAKTKPREEQYNSTYRVVSVLTVLHQDWLNGKEYKCKVSNKALPAPIEKTISKAKGQPREPQVYTLPPSRDELGGRSCIDTIPKSRCTAFQCKHSMKYRLSFCRKTCGTCGGTKNQVSLTCLVKGFYPSDIAVEWESNGQPENNYKTTPPVLDSDGSFFLYSKLTVDKSRWQQGNVFSCSVMHEALHNHYTQKSLSLSPGK
modifications: Definition of Artificial Sequence: Synthetic protein

Tests used:
[1] = system: IFN-g production in human whole blood; type: cell-based; details: for IC50: read-out: WB/IFNg (IC50)
[2] = system: IL-2 production in human whole blood; details: for IC50: read-out: WB/IL-2 (IC50)
[3] = system: CD40L on T cells in human whole blood; type: cell-based
[4] = system: IL-2R on T cells in human whole blood; type: cell-based
[5] = target: human Kv1.3 channel (Homo sapiens, UniProt P22001); type: cell-based
[6] = target: T1, human Kv1.3 (CHO) (Homo sapiens, UniProt P22001); type: cell-based
T1 construct: expressed in transfected cells; host or cells: CHO

[7] = target: T2, human Kv1.1 (HEK293) (Homo sapiens, UniProt Q09470); type: cell-based
T2 construct: expressed in transfected cells; host or cells: HEK293
T2 sequence (Q09470 whole entry): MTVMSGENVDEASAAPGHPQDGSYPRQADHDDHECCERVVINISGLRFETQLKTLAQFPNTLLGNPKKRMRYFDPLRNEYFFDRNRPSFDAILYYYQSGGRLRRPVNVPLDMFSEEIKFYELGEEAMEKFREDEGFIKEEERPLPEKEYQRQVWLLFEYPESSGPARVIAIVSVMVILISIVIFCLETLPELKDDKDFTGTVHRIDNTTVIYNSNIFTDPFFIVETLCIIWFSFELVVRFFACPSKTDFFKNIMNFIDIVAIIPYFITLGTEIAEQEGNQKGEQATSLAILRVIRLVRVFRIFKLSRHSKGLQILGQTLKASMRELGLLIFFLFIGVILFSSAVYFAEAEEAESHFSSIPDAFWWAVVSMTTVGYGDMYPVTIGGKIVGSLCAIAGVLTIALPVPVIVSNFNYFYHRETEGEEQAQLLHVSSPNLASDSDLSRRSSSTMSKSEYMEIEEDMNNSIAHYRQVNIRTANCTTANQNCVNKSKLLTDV

Sequence of human Kv1.3 channel (P22001 whole entry): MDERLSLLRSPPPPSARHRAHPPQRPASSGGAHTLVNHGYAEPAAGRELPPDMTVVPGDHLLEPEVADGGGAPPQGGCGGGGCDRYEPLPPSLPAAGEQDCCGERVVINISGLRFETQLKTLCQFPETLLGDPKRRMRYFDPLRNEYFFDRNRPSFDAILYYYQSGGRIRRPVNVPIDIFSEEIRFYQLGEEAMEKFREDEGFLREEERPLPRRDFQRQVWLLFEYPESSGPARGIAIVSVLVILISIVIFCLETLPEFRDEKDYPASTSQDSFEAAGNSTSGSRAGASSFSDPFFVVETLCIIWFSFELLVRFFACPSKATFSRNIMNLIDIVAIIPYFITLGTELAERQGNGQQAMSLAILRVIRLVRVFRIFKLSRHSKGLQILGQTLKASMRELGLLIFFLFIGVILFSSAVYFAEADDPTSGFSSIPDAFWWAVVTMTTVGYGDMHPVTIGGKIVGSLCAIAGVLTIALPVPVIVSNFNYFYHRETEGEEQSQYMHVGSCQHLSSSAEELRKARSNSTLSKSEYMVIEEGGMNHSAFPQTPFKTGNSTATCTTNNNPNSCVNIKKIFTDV
T1 sequence (P22001 whole entry): as above

| Molecule | IC50 [1] [nM] | IC50 [2] [nM] | also measured |
| --- | --- | --- | --- |
| GGGGSGVIINVKCKISRQCLEPCKKAGMRFGKCMNGKCHCTPK [compound 1395] | 2.2 | 1.36 |  |
| GVIINVKCKISRQCLKPCKDAGMRFGKCMNGKCHCGGG [compound 1274] | 3.64 | 2.64 |  |
| IbTx: BKCa channel inhibitor peptide, Bachem (QFTDVDCSVSKECWSVCKDLFGVDRGKCMGKKCRCYQ; Definition of Artificial Sequence: Synthetic peptide) [reference compound] |  |  | thapsigargin-induced IFN-g production (in words) [1]: no significant activity; thapsigargin-induced upregulation of CD40L on T cells (in words) [3]: no significant activity; thapsigargin-induced upregulation of the IL-2R on T cells (in words) [4]: no significant activity; thapsigargin-induced IL-2 production (in words) [2]: no significant activity |
| GVIINVKCKISAQCLKPCKDAGMRFGKCMNGKCHCTPK [compound 1392] | 0.092 | 0.041 |  |
| GIINVKCKISAQCLKPCRDAGMRFGKCMNGKCACTPK [compound 4916] | 2.24 | 1.5 |  |
| Fc-L10-ShK[2-35]: human IgG1 Fc fused via 10 amino acid linker to ShK[2-35] |  |  | thapsigargin-induced IFN-g production (in words) [1]: suppressed; also recorded: blocked; thapsigargin-induced upregulation of CD40L on T cells (in words) [3]: blocked; thapsigargin-induced upregulation of the IL-2R on T cells (in words) [4]: blocked; stability in whole blood [2]: stable in whole blood at 37 °C for up to 48 hours |
| GVIINVKCKISRQCLKPCKDAGMRFGKCMNGKCHCYPK [compound 298] | 0.923 | 0.639 |  |
| Fc-L-KTX1: bacterially expressed Fc-linker-KTX1 peptibody |  |  | block of human Kv1.3 current (in words) [5]: concentration dependent block |
| GVIINVKCKISRQCLKPCKDAGMRFGKCMNGKCHC [compound 1396] | 6.99 | 3.94 |  |
| GVIINVKCKISRQCLKPCKDAGMRFGKCMNGKCHCTPK [compound 296] | 1.32 | 1.58 |  |
| SEQ ID No: 4989: OSK1 analog without beta strand 1 (labeled des 1-7), Table 42 (CKISRQCLKPCKDAGMRFGKCMNGKCHC-NH2; ends and bridges not checked) |  |  | blockade of the whole blood cytokine response (IL-2, IFNg), in words [2]: still retain activity in blocking inflammation |
| GVIINVKCKISRQCLKPCKDAGMRFGKCMNGKCACTPK [compound 4990] | 26.6 | 65.5 |  |
| CC[C@H](C)[C@@H]1NC(=O)[C@H](CCCCN)NC(=O)[C@@H](NC(=O)[C@H](CCCCN)NC(=O)[C@@H](NC(=O)[C@H](CC(N)=O)NC(=O)[C@@H](NC(=O)[C@@H](NC(=O)[C@@H](NC(=O)CN)C(C)C)[C@@H](C)CC)[C@@H](C)CC)C(C)C)CSSC[C@@H]2NC(=O)[C@H](CCCCN)NC(=O)CNC(=O)[C@H](Cc3ccccc3)NC(=O)[C@H](CCCNC(=N)N)NC(=O)[C@H](CCSC)NC(=O)CNC(=O)[C@H](C)NC(=O)[C@H](CCCCN)NC(=O)[C@H](CCCCN)NC(=O)[C@@H]3CSSC[C@@H](C(=O)N[C@H](C(=O)N4CCC[C@H]4C(=O)N[C@@H](CCCCN)C(=O)O)[C@@H](C)O)NC(=O)[C@H](Cc4c[nH]cn4)NC(=O)[C@H](CSSC[C@H](NC(=O)[C@H](CCC(N)=O)NC(=O)[C@H](CCCNC(=N)N)NC(=O)[C@H](CO)NC1=O)C(=O)N[C@@H](CC(C)C)C(=O)N[C@@H](CCC(=O)O)C(=O)N1CCC[C@H]1C(=O)N3)NC(=O)[C@H](CCCCN)NC(=O)CNC(=O)[C@H](CC(N)=O)NC(=O)[C@H](C)NC2=O [OSK1[Ala-29]] (H-GVIINVKCKISRQCLEPCKKAGMRFGKCANGKCHCTPK-OH; disulfide 8-28, 14-33, 18-35) |  |  | inhibition of the Kv1.3 current by IonWorks (in words) [6]: potent inhibition of the Kv1.3 current; selectivity over Kv1.1 by IonWorks (in words) [7]: improved selectivity over Kv1.1; potency relative to cyclosporin A in blocking the cytokine response [2]: several orders of magnitude more potent |
| B1 | 55.2 | 38.5 |  |
| B2 |  |  | IC50 values, whole blood cytokine response [2]: pM range; blockade of the whole blood cytokine response (IL-2, IFNg), in words [2]: potent blockade of the whole blood cytokine response |
| B3 |  |  | IC50 values, whole blood cytokine response [2]: pM range; blockade of the whole blood cytokine response (IL-2, IFNg), in words [2]: potent blockade of the whole blood cytokine response |
